Reference: a compilation of properties of binary mixtures (doi:10.1021/acs.jpcb.5b11900)

Experiment: xn = mol fraction of the nth substance listed
Details: 101 kPa

SMILES: CCC[NH3+].O=[N+]([O-])[O-] + CCCC[NH3+].O=[N+]([O-])[O-]
- electrical conductivity (298.15 K, x1 = 0.5): 0.606 S/m
- viscosity (298.15 K, x1 = 0.5): 80.6 mPa·s
- electrical conductivity (303.15 K, x1 = 0.5): 0.729 S/m
- viscosity (303.15 K, x1 = 0.5): 65.7 mPa·s
- electrical conductivity (308.15 K, x1 = 0.5): 0.866 S/m
- viscosity (308.15 K, x1 = 0.5): 54.2 mPa·s
- electrical conductivity (318.15 K, x1 = 0.5): 1.18 S/m
- viscosity (318.15 K, x1 = 0.5): 38.3 mPa·s
- viscosity (333.15 K, x1 = 0.5): 24.4 mPa·s
- viscosity (338.15 K, x1 = 0.5): 21.3 mPa·s
- viscosity (348.15 K, x1 = 0.5): 16.7 mPa·s
- viscosity (353.15 K, x1 = 0.5): 14.9 mPa·s

SMILES: CC[NH3+].O=[N+]([O-])[O-] + CC[N+](CC)(CC)CC.O=[N+]([O-])[O-]
- electrical conductivity (293.15 K, x2 = 0): 1.93 S/m
- viscosity (293.15 K, x2 = 0): 43.5 mPa·s
- electrical conductivity (298.15 K, x2 = 0): 2.25 S/m
- viscosity (298.15 K, x2 = 0): 36.5 mPa·s
- electrical conductivity (303.15 K, x2 = 0): 2.6 S/m
- viscosity (303.15 K, x2 = 0): 31 mPa·s
- electrical conductivity (308.15 K, x2 = 0): 2.97 S/m
- viscosity (308.15 K, x2 = 0): 26.5 mPa·s
- electrical conductivity (313.15 K, x2 = 0): 3.37 S/m
- viscosity (313.15 K, x2 = 0): 22.8 mPa·s
- electrical conductivity (318.15 K, x2 = 0): 3.78 S/m
- viscosity (318.15 K, x2 = 0): 20 mPa·s
- electrical conductivity (323.15 K, x2 = 0): 4.22 S/m
- viscosity (323.15 K, x2 = 0): 17.6 mPa·s
- viscosity (328.15 K, x2 = 0): 15.6 mPa·s
- viscosity (333.15 K, x2 = 0): 13.8 mPa·s
- viscosity (343.15 K, x2 = 0): 11.2 mPa·s
- viscosity (348.15 K, x2 = 0): 10.2 mPa·s
- viscosity (353.15 K, x2 = 0): 9.2 mPa·s

SMILES: CC[NH3+].O=[N+]([O-])[O-] + CC[NH2+]CC.O=[N+]([O-])[O-]
- electrical conductivity (288.15 K, x2 = 0): 1.62 S/m
- electrical conductivity (293.15 K, x2 = 0): 1.93 S/m
- viscosity (293.15 K, x2 = 0): 43.5 mPa·s
- electrical conductivity (298.15 K, x2 = 0): 2.25 S/m
- viscosity (298.15 K, x2 = 0): 36.5 mPa·s
- electrical conductivity (303.15 K, x2 = 0): 2.6 S/m
- viscosity (303.15 K, x2 = 0): 31 mPa·s
- electrical conductivity (308.15 K, x2 = 0): 2.97 S/m
- viscosity (308.15 K, x2 = 0): 26.5 mPa·s
- electrical conductivity (313.15 K, x2 = 0): 3.37 S/m
- viscosity (313.15 K, x2 = 0): 22.8 mPa·s
- electrical conductivity (318.15 K, x2 = 0): 3.78 S/m
- viscosity (318.15 K, x2 = 0): 20 mPa·s
- viscosity (328.15 K, x2 = 0): 15.6 mPa·s
- viscosity (338.15 K, x2 = 0): 12.5 mPa·s
- viscosity (348.15 K, x2 = 0): 10.2 mPa·s
- viscosity (353.15 K, x2 = 0): 9.21 mPa·s

SMILES: CCCC[NH3+].O=[N+]([O-])[O-] + CC[NH3+].O=[N+]([O-])[O-]
- electrical conductivity (288.15 K, x2 = 0.5): 0.646 S/m
- electrical conductivity (293.15 K, x2 = 0.25): 0.507 S/m
- viscosity (293.15 K, x2 = 0.25): 104.4 mPa·s
- electrical conductivity (293.15 K, x2 = 0.5): 0.792 S/m
- viscosity (293.15 K, x2 = 0.5): 82.3 mPa·s
- electrical conductivity (293.15 K, x2 = 0.75): 1.2 S/m
- viscosity (293.15 K, x2 = 0.75): 62 mPa·s
- electrical conductivity (298.15 K, x2 = 0.25): 0.615 S/m
- viscosity (298.15 K, x2 = 0.25): 83.7 mPa·s
- electrical conductivity (298.15 K, x2 = 0.5): 0.951 S/m
- viscosity (298.15 K, x2 = 0.5): 66.6 mPa·s
- electrical conductivity (298.15 K, x2 = 0.75): 1.43 S/m
- viscosity (298.15 K, x2 = 0.75): 50.6 mPa·s
- electrical conductivity (303.15 K, x2 = 0.25): 0.742 S/m
- viscosity (303.15 K, x2 = 0.25): 68.1 mPa·s
- electrical conductivity (303.15 K, x2 = 0.5): 1.13 S/m
- viscosity (303.15 K, x2 = 0.5): 54.7 mPa·s
- electrical conductivity (308.15 K, x2 = 0.5): 1.33 S/m
- viscosity (308.15 K, x2 = 0.5): 45.6 mPa·s
- electrical conductivity (308.15 K, x2 = 0.75): 1.95 S/m
- viscosity (308.15 K, x2 = 0.75): 35.5 mPa·s
- electrical conductivity (313.15 K, x2 = 0.25): 1.03 S/m
- viscosity (313.15 K, x2 = 0.25): 47 mPa·s
- electrical conductivity (313.15 K, x2 = 0.5): 1.54 S/m
- viscosity (313.15 K, x2 = 0.5): 38.5 mPa·s
- electrical conductivity (313.15 K, x2 = 0.75): 2.24 S/m
- viscosity (313.15 K, x2 = 0.75): 30.6 mPa·s
- electrical conductivity (318.15 K, x2 = 0.25): 1.2 S/m
- viscosity (318.15 K, x2 = 0.25): 39.5 mPa·s
- electrical conductivity (318.15 K, x2 = 0.5): 1.77 S/m
- viscosity (318.15 K, x2 = 0.5): 32.7 mPa·s
- electrical conductivity (318.15 K, x2 = 0.75): 2.55 S/m
- viscosity (318.15 K, x2 = 0.75): 26 mPa·s
- electrical conductivity (323.15 K, x2 = 0.5): 2.02 S/m
- viscosity (323.15 K, x2 = 0.5): 28.1 mPa·s
- electrical conductivity (323.15 K, x2 = 0.75): 2.88 S/m
- viscosity (323.15 K, x2 = 0.75): 22.6 mPa·s
- viscosity (328.15 K, x2 = 0.25): 29 mPa·s
- viscosity (328.15 K, x2 = 0.5): 24.4 mPa·s
- viscosity (328.15 K, x2 = 0.75): 19.8 mPa·s
- viscosity (333.15 K, x2 = 0.5): 21.3 mPa·s
- viscosity (333.15 K, x2 = 0.75): 17.6 mPa·s
- viscosity (338.15 K, x2 = 0.5): 18.7 mPa·s
- viscosity (343.15 K, x2 = 0.5): 16.6 mPa·s
- viscosity (343.15 K, x2 = 0.75): 13.8 mPa·s
- viscosity (348.15 K, x2 = 0.25): 17.2 mPa·s
- viscosity (348.15 K, x2 = 0.5): 14.8 mPa·s
- viscosity (348.15 K, x2 = 0.75): 12.4 mPa·s
- viscosity (353.15 K, x2 = 0.75): 11.3 mPa·s

SMILES: CCC[NH3+].O=[N+]([O-])[O-] + CC[NH3+].O=[N+]([O-])[O-]
- electrical conductivity (288.15 K, x2 = 0.5): 0.991 S/m
- electrical conductivity (298.15 K, x2 = 0.5): 1.42 S/m
- viscosity (298.15 K, x2 = 0.5): 53 mPa·s
- electrical conductivity (308.15 K, x2 = 0.5): 1.93 S/m
- viscosity (308.15 K, x2 = 0.5): 37.1 mPa·s
- electrical conductivity (313.15 K, x2 = 0.5): 2.22 S/m
- viscosity (313.15 K, x2 = 0.5): 31.6 mPa·s
- electrical conductivity (323.15 K, x2 = 0.5): 2.85 S/m
- viscosity (323.15 K, x2 = 0.5): 23.5 mPa·s
- viscosity (328.15 K, x2 = 0.5): 20.5 mPa·s
- viscosity (333.15 K, x2 = 0.5): 18.1 mPa·s
- viscosity (338.15 K, x2 = 0.5): 16 mPa·s
- viscosity (343.15 K, x2 = 0.5): 14.3 mPa·s
- viscosity (348.15 K, x2 = 0.5): 12.8 mPa·s
